US8383816B2, “Aryl-quinolyl compounds and their use” (Cancer Research Technology Limited, priority 2008, dated 2013)
“And” between values parts separate entries of the source, which are not always exact repeats. Equal entries are not always repeated.

Experiments:
B-RAF = B-RAF (Homo sapiens, UniProt P15056, V600E); assay: DELFIA Kinase Assay; assay type: biochemical; conditions: 100 μM ATP
Method: Biological Methods—DELFIA Kinase Assay
Compounds were assessed by a kinase assay performed according to the following protocol.
DELFIA Kinase Buffer (DKB):
DKB1 (DKB with B-RAF and MEK Protein):
Combine 4950 μL of DKB and 50 μL of 2.5 mg/ml GST-MEK stock (to give […] of MEK per 40 μL). Then add 22.5 μL of B-RAF to give ˜0.2 μL of B-RAF per 40 μL.
DKB2 (DKB with MEK Protein):
Combine 4950 μL of DKB and 50 μL of 2.5 mg/ml GST-MEK stock (to give 1 mg of MEK per 40 μL). Use 500 μL of this for the blow out (BO) and the empty vector (EV) control.
100 mM stock, dilute to 500 μM to give 100 μM final concentration in assay.
Inhibitors (Test Compounds):
Phospho-MEK½ CST #9121S diluted 1:1000 in DELFIA assay buffer (AB). Preincubate antibody in the AB for 30 minutes at room temperature prior to use.
Anti-rabbit-Eur labelled secondary Perkin Elmer #AD0105 diluted 1:1000 in DELFIA assay buffer (AB). Preincubate antibody in the AB for 30 minutes at room temperature prior to use. (Primary and secondary antibodies were incubated together.)
1. Preblock wells with 5% milk in TBS for 1 hour.
2. Wash wells with 3× with 200 μL TBS.
3. Plate out 40 μL of DKB1 for all inhibitors (test compounds), DMSO control, and optionally other control compounds.
4. Plate out 40 μL of DKB2 for BO and EV wells.
5. Add inhibitors (test compounds) at 0.5 μL per well according to desired plate layout.
6. Add 0.5 μL DMSO to vehicle control wells.
7. Add 2 μL of B-RAF to BO and EV wells.
8. Pre-incubate with inhibitors (test compounds) for 10 minutes at room temperature with shaking.
9. Add 10 μL of 500 μM ATP stock, in DKB, to give 100 μM assay concentration.
10. Seal plates with TopSeal and incubate at room temperature with shaking for 45 minutes.
11. Wash plates 3× with 200 μL 0.1% Tween20/Water to terminate reaction.
12. Add 50 μL per well of antibody mix and incubate for 1 hour at room temperature with shaking.
13. Wash plates 3× with 200 μL 0.1% Tween20/Water.
14. Add 100 μL DELFIA enhancement solution per well, cover in foil, and incubate at room temperature for 30 minutes with shaking.
15. Read on Victor using Europium protocol.
(§1) Values for the blank (Empty Vector) are subtracted from all values. The DMSO controls are set as 100% activity and assay points (the response) are calculated as a percentage of the DMSO control. Data are plotted using Graphpad Prism software and a non-linear regression line is calculated using a variable slope sigmoidal dose-response equation (Y=Bottom+(Top−Bottom)/(1+10^((LogEC50−X)*HillSlope)) where X is the logarithm of concentration. Y is the response). The IC50 generated by this procedure is the concentration of the drug that produces a percentage control fluorescence value midway between the saturation, and zero-effect plateaus. Three independent assays are usually performed and the mean IC50 is reported.

pERK = assay: Cell Based Phospho-ERK Assay; conditions: 6 h, cells incubated with test compound for 6 hours
Method: Biological Methods—Cell Based Phosho-ERK Assay
Compounds were assessed using a cell-based assay which was performed according to the following protocol.
Plate out 16,000 cells/well in 99 μL medium in a 96-well plate.
1. Add 1 μL inhibitor to the cells […].
2. Incubate the cells with test compound for 6 hours at 37° C.
3. Aspirate off the solution from all of the wells.
4. Fixate the cells with 100 μL 4% formaldehyde/0.25% Triton X-100 PBS per well.
5. Incubate the plate for 1 hour at 4° C.
6. Aspirate off the fixing solution and add 300 μL TBS per well.
7. Leave the plate overnight at 4° C.
1. Wash the plate 2× with 200 μL PBS per well.
2. Block with 100 μL 5% dried milk in TBS.
3. Incubate the plate for 20 minutes at 37° C.
4. Wash the plate 2× with 0.1% tween/H2O.
5. Add 50 μL of 3 μg/mL primary antibody pERK (Sigma M8159), diluted in 5% milk powder/TBS, to each well.
6. Incubate the plate for 2 hours at 37° C.
7. Wash the plate 3× with 0.1% tween/H2O.
8. Add 50 μL of 0.45 μg/mL secondary Europium-labelled anti-mouse antibody (Perkin Elmer) to each well.
9. Incubate the plate for 1 hour at 37° C.
10. Wash the plate 3× with 0.1% tween/H2O.
11. Add 100 μL enhancement solution (Perkin Elmer) to each well.
12. Leave the plate for approximately 10 minutes at room temperature before gently shaking the plate.
13. Read Europium Time Resolved Fluorescence in Victor2.
14. Wash the plate 2× with 0.1% tween/H2O.
15. Measure the protein concentration with BCA (Sigma) by adding 200 μL of solution per well.
16. Incubate the plate for 30 minutes at 37° C.
17. Read absorbance levels at 570 nm in a plate reader.
Note that Europium counts are normalised for protein levels by dividing counts by absorbance.
as §1, with “(no cells)” for “(Empty Vector)”

WM266.4 melanoma cells = assay: SRB Cell Proliferation Assay (SRB GI50); assay type: cell-based; conditions: Homo sapiens, WM 266-4, 144 h, 6 days growth
Method: Biological Methods—SRB Cell Proliferation Assay (SRB GI50)
Cultures of WM266.4 melanoma cells are routinely cultured in DMEM/10% foetal bovine serum, at 37° C., in 5% CO2 water saturated atmosphere. Cultures are maintained in exponential growth phase by sub-culturing before having become confluent (3-5 day intervals). Single cell suspensions are prepared by harvesting an 80 cm^2 tissue culture flask with 5 mL commercial trypsin EDTA. After 5 minutes, the detached cells are mixed with 5 mL fully complemented culture medium and centrifugally pelleted (1000 rpm for 7 minutes). After aspirating the supernatant, the cell pellet is re-suspended in 10 mL fresh medium and the cells fully disaggregated by drawing the whole volume up/down 5 times through a 19-gauge needle. The concentration of the cells is determined using a haemocytometer (1/10 dilution). A suitable volume to give at least a 2-fold excess for the number of tests being conducted, typically 100-200 mL, is prepared by diluting the cell suspension to 10,000/mL, and 100 μL/well dispensed into 96 well plates using a programmable 8-channel peristaltic pump, giving 1000 cells/well, leaving column 12 blank. The plates are returned to the incubator for 24 hours to allow the cells to re-attach.
The compounds being tested are prepared at 20 mM in dimethylsulphoxide. Aliquots (200 μL) are diluted into 20 mL culture medium giving 200 μM, and 10 serial dilutions of 3× performed by transferring 5 mL to 10 mL. Aliquots (100 μL) of each dilution are added to the wells, using an 8-channel pipettor, thus performing a final further 2× dilution, and giving doses ranging from 100 μM to 0.005 μM. Column 11 receives plain culture medium only. Each compound is tested in quadruplicate, each replicate being the average of four wells, and two plates per compound.
After a further 6 days growth, the plates are emptied, and the cells are fixed in 10% trichloroacteic acid for 10 minutes on ice. After thorough rinsing in running tap water, the plates are dried, and stained by adding 50 μL of a solution of 0.1% sulphorhodamine-B in 1% acetic acid, for 10 minutes at room temperature. The stain is poured out and the plates thoroughly rinsed under a stream of 1% acetic acid, thus removing unbound stain, and dried. The bound stain is taken into solution by addition of 150 μL Tris buffer pH 8, followed by 10 minutes on a plate-shaker (approximately 500 rpm). The absorbance at 540 nm in each well (being proportional to the number of cells present) is determined using a plate reader.
After averaging the results in rows A-D and E-H, the blank value (row 12) is subtracted, and results expressed as percentage of the untreated value (row 11). […] The GI50 generated by this procedure is the concentration of the drug that produces a percentage control A540 midway between the saturation, and zero-effect plateaus.

Sequence of B-RAF (P15056 whole entry V600E): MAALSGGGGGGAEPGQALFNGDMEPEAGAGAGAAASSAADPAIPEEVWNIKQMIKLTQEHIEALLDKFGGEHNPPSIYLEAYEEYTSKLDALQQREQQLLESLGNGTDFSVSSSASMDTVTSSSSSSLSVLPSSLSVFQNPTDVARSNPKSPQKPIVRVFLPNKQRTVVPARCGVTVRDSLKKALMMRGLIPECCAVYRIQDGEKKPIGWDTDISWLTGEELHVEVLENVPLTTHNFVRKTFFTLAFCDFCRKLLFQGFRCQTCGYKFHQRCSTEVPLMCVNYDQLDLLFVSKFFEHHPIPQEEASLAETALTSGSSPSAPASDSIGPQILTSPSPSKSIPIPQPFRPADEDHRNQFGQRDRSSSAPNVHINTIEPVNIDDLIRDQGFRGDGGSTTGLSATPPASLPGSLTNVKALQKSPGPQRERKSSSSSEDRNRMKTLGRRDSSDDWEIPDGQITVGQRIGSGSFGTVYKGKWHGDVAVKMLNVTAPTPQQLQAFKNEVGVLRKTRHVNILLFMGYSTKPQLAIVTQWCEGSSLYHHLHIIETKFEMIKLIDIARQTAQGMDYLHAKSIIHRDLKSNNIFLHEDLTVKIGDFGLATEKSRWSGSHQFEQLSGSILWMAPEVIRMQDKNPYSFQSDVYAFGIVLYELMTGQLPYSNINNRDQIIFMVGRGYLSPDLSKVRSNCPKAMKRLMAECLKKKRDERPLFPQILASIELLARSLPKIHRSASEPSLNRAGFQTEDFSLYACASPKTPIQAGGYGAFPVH

Row | SMILES | IC50 (B-RAF) | IC50 (pERK) [µM] | GI50 (WM266.4 melanoma cells) [µM]
1 | C=CCn1nc(C(C)(C)C)cc1NC(=O)Nc1ccc(Oc2ccnc3[nH]c(=O)c(C)nc23)c2cccnc12 [BB-009] | ≤ 1 µM | ≤ 10 | ≤ 10
2 | O=C(Nc1cc(C(F)(F)F)ccc1F)Nc1ccc(Oc2ccnc3[nH]c(=O)cnc23)c2cccnc12 [BB-005, 5-[(8-Amino-quinolinyl-5-oxy)carbonylamino-5-(2-fluoro-5-trifluoromethyl-phenyl)]-pyridin-[2,3]pyrazin-2-one] | ≤ 1 µM | ≤ 10 | ≤ 10
3 | O=C(Nc1ccc(Cl)c(C(F)(F)F)c1)Nc1ccc(Oc2ccnc3[nH]c(=O)[nH]c23)c2cccnc12 [AA-007, 4-[(5-Oxy-quinolinyl-8-amino)carbonylamino-(3-trifluoromethyl-4-chloro-phenyl)]-pyridin-5,6-imidazolone] | ≤ 1 µM | ≤ 10 | ≤ 10
4 | Cn1c(=O)[nH]c2c(Oc3ccc(NC(=O)Nc4cc(C(F)(F)F)ccc4F)c4ncccc34)ccnc21 [AA-013, 5-[(8-Amino-quinolinyl-5-oxy)carbonylamino-3-(2-fluoro-5-trifluoromethyl-phenyl)]-Pyridin-[2,3]-N-methylimidazol-2-one] | ≤ 1 µM | ≤ 10 | –
5 | Cc1nc2c(Oc3ccc(NC(=O)Nc4cc(C(C)(C)C)nn4-c4ccccc4)c4ncccc34)ccnc2[nH]c1=O [BB-003, 5-[(8-Amino-quinolinyl-5-oxy)carbonylamino-5-(1-N-p-phenyl-3-t-butyl-imidazolyl)]-pyridin-[2,3]-3-methylpyrazin-2-one] | ≤ 1 µM | ≤ 10 | ≤ 10
6 | O=C(Nc1cc(C(F)(F)F)ccc1F)Nc1ccc(Oc2ccnc3ncc(=O)[nH]c23)c2cccnc12 [BB-004, 5-[(8-Amino-quinolinyl-5-oxy)carbonylamino-5-(2-fluoro-5-trifluoromethyl-phenyl)]-pyridin-[2,3]pyrazin-3-one] | ≤ 1 µM | ≤ 10 | ≤ 10
7 | Cn1c(=O)[nH]c2nccc(Oc3ccc(NC(=O)Nc4cc(C(C)(C)C)nn4-c4ccccc4)c4ncccc34)c21 [AA-012, 4-[(5-Oxy-quinolinyl-8-amino)carbonyl-amino-(1-N-phenyl-3-t-butyl-pyrazol-5-yl)]-pyridin-5-N-methyl,6-imidazolone] | ≤ 1 µM and 1 µM | – | –
8 | CC(C)(C)c1cc(NC(=O)Nc2ccc(Oc3ccnc4ncc(=O)[nH]c34)c3cccnc23)n(-c2ccccc2)n1 [BB-010] | – | ≤ 10 | ≤ 10
9 | Cc1ccc(-n2nc(C(C)(C)C)cc2NC(=O)Nc2ccc(Oc3ccnc4[nH]c(=O)c(C)nc34)c3cccnc23)cc1 [BB-002, 5-[(8-Amino-quinolinyl-5-oxy)carbonylamino-5-(1-N-p-tolyl-3-t-butyl-imidazolyl)]-pyridin-[2,3]-3-methylpyrazin-2-one] | – | ≤ 10 | ≤ 10
10 | Cn1c(=O)[nH]c2c(Oc3ccc(NC(=O)Nc4cc(C(C)(C)C)nn4-c4ccccc4)c4ncccc34)ccnc21 [AA-016] | – | ≤ 10 | ≤ 10
11 | CC(C)(C)c1cc(NC(=O)Nc2ccc(Oc3ccnc4[nH]c(=O)[nH]c34)c3ncccc23)n(-c2ccccc2)n1 [AA-006, 4-[(8-Oxy-quinolinyl-5-amino)carbonyl-amino-(1-N-phenyl-3-t-butyl-pyrazol-5-yl)]-pyridin-5,6-imidazolone] | – | ≤ 10 | ≤ 10
12 | O=C(Nc1ccc(Cl)c(C(F)(F)F)c1)Nc1ccc(Oc2ccnc3[nH]c(=O)[nH]c23)c2ncccc12 [AA-002, 4-[(8-Oxy-quinolinyl-5-amino)carbonylamino-(3-trifluoromethyl-4-chloro-phenyl)]-pyridin-5,6-imidazolone] | ≤ 1 µM | – | –
13 | Cc1ccc(-n2nc(C(C)(C)C)cc2NC(=O)Nc2ccc(Oc3ccnc4[nH]c(=O)n(C)c34)c3cccnc23)cc1 [AA-011, 4-[(5-Oxy-quinolinyl-8-amino)carbonyl-amino-(1-N-p-tolyl-3-t-butyl-pyrazol-5-yl)]-pyridin-5-N-methyl,6-imidazolone] | – | ≤ 10 | ≤ 10
14 | Cc1ccc(-n2nc(C(C)(C)C)cc2NC(=O)Nc2ccc(Oc3ccnc4c3[nH]c(=O)n4C)c3cccnc23)cc1 [AA-015] | – | ≤ 10 | ≤ 10
15 | O=C(Nc1cc(C(F)(F)F)ccc1F)Nc1ccc(Oc2ccnc3[nH]c(=O)[nH]c23)c2ncccc12 [AA-001, 4-[(5-Amino-quinolinyl-8-oxy)carbonylamino-(2-fluoro-5-trifloromethylphenyl)]-pyridin-5,6-imidazolone] | ≤ 1 µM | – | ≤ 10
